From paper PMC5669110 (Pharmacognosy Magazine, 2017) come the findings set out here.

What all share (experiment): fluorogenic HDAC8 inhibitor screening kit
Common to all, as to format: biochemical

Assay [1] has as its target T1, HDAC8 (histone deacetylase family member 8) (Homo sapiens, UniProt Q9BY41).
T1 sequence (Q9BY41 1-377): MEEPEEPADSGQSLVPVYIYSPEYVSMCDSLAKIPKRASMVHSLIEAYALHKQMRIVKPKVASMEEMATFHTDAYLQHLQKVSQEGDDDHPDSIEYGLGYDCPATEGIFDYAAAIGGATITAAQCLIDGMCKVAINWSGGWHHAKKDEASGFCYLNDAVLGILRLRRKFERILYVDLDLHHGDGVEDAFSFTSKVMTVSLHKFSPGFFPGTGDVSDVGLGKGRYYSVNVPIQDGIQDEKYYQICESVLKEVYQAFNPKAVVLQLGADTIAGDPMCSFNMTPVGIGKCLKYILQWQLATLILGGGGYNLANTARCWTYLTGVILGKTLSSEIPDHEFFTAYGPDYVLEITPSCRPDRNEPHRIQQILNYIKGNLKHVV
As to conditions: read-out: % inhibition at 24.2 μM.

The target of assay [2] is T1, HDAC8 (histone deacetylase family member 8). Particulars: read-out: % inhibition at 60.75 μM.
Assay [3] has the same target. As to conditions: read-out: % inhibition at 310.25 μM.

Turning to `OCC=Cc1ccccc1` [CALC, Cinnamyl alcohol], in assay [1], the inhibition at 24.2 µM came to 5.7%.

As for `O=C(O)/C=C/c1ccccc1` [CA, Cinnamic acid], the inhibition at 60.75 µM in assay [2] was determined as 9.3%.

As for `O=C/C=C/c1ccccc1` [CAL, Cinnamaldehyde], the inhibition at 310.25 µM in assay [3] is 18.5%.
